In PMC7501296, “Rapid and direct control of target protein levels with VHL-recruiting dTAG molecules” (Nature Communications, 2020):
Several values for one entry are separate records, joined by “and”; a condition that tells them apart may be missing. Equal values may be shown once.

Key:
[1] = tested on: PATU-8902 FKBP12^F36V-KRAS^G12V; KRAS^-/- clone; assay: Antiproliferation, PATU-8902 FKBP12F36V-KRASG12V; KRAS-/- clone, 3D-spheroid (CellTiter-Glo); assay type: cell-based; conditions: for DMSO-normalized antiproliferation: FKBP12F36V-KRASG12V, KRAS-/-, 3D-spheroid
Procedure, shortened: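 Viability of cells grown as ultra-low adherent 3D-spheroids was determined with CellTiter-Glo (Promega). Luminescence readings were taken on an Envision 2104 plate reader (PerkinElmer) and a Fluostar Omega Reader (BMG Labtech), and the resulting data were processed in GraphPad PRISM v8 to assess effects on cell proliferation.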

[2] = tested on: PATU-8902 LACZ-FKBP12^F36V clone; assay: Quantitative MS proteomics, PATU-8902 LACZ-FKBP12F36V clone; assay type: cell-based, Homo sapiens; conditions: for TMT intensity per TMT channel: PATU-8902 LACZ-FKBP12F36V samples, biological replicates
Description: Cell pellets from PATU-8902 and EWS502 cells were lysed using 8 M urea, 200 mM 4-(2-hydroxyethyl)-1-piperazinepropanesulfonic acid (EPPS) at pH 8.5 with protease inhibitors. Samples were further homogenized and DNA was sheered via sonication using a probe sonicator (20 × 0.5 s pulses; level 3). Total protein was determined using a BCA assay and stored at −80 °C until future use. A total of 100 µg of protein was aliquoted for each condition and TMT channel for further downstream processing. Protein extracts were reduced using 10 mM dithiothreitol (DTT) for 30 min at room temperature. Next, samples were alkylated with 20 mM iodoacetamide for 45 min in the dark at room temperature. To facilitate the removal of incompatible reagents, proteins were precipitated using chloroform methanol. Briefly, to 100 µL of each sample, 400 µL of methanol was added, followed by 100 µL of chloroform with thorough vortexing. Next, 300 µL of HPLC grade water was added and samples were vortexed thoroughly. Each sample was centrifuged at 14,000 × g for 5 min at room temperature. The upper aqueous layer was removed and the protein pellet was washed twice with methanol and centrifuged at 14,000 × g for 5 min at room temperature. Protein pellets were resolubilized in 200 mM EPPS buffer and digested overnight with Lys-C (1:100, enzyme:protein ratio) at room temperature. The next day, trypsin (1:100 ratio) was added and incubated at 37 °C for an additional 6 h in a ThermoMixer set to 1000 RPM.
To each digested sample, 30% anhydrous acetonitrile was added and 100 µg of peptides were labeled using 200 µg of TMT reagent (TMT1-TMT11). Following labeling, a 5% hydroxylamine solution was used to quench excess TMT reagent. To equalize protein loading, a ratio check was performed by pooling 2 µg of each TMT-labeled sample. Samples were pooled and desalted using in-house packed C18 StageTips and analyzed by LC-MS/MS. Normalization factors were calculated from this label check, samples were mixed 1:1 across all TMT channels and desalted using a 100 mg Sep-Pak solid phase extraction cartridge. Eluted pooled peptides were further fractionated with basic-pH reverse-phase (bRP) HPLC using an Agilent 300 extend C18 column and collected into a 96 deep-well plate. Samples were consolidated into 24 fractions, and 12 nonadjacent fraction were desalted using StageTips prior to analyses using LC-MS/MS[35]–[37].
All mass spectrometry data was acquired using an Orbitrap Fusion mass spectrometer in-line with a Proxeon NanoLC-1000 UHPLC system. Peptides were separated using an in-house 100 µm capillary column packed with 40 cm of Accucore 150 resin (2.6 µm, 150 Å) (Thermo Fisher Scientific) using a 180 min LC gradient per fraction. Eluted peptides were acquired using synchronous precursor selection (SPS-MS3) method for TMT quantification. Briefly, MS1 spectra were acquired at 120 K resolving power with a maximum of 50 ms in the Orbitrap. MS2 spectra were acquired by selecting the top ten most abundant features via collisional induced dissociation (CID) in the ion trap using an automatic gain control (AGC) of 15 K, quadrupole isolation width of 0.7 m/z and a maximum ion time of 100 ms. For MS3 acquisition, a synchronous precursor selection of ten fragment ions was acquired with an AGC of 150 K for 150 ms and a normalized collision energy of 55.
All acquired raw data were converted to mzXML using Raw File Reader (v3.0.77). Spectra were processed using Comet (2019.01.5)[39]–[41], search results were filtered using the LDA function MASS Package in R, and data were processed using an in-house informatics pipeline[42]–[44]. Custom code was not developed in this study. Briefly, peptide spectral libraries were first filtered to a peptide false discovery rate (FDR) of less than 1% using linear discriminant analysis employing a target decoy strategy. […]

[3] = tested on: PATU-8902 LACZ-FKBP12^F36V clone; assay: Antiproliferation, PATU-8902 LACZ-FKBP12F36V clone, 2D-monolayer (CellTiter-Glo); assay type: cell-based
Procedure, shortened: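 Viability of cells grown as 2D-adherent monolayers was determined with the CellTiter-Glo luminescent reagent (Promega). Luminescence signals were read on either an Envision 2104 plate reader (PerkinElmer) or a Fluostar Omega Reader (BMG Labtech), and the resulting data were processed and analyzed in GraphPad PRISM v8 software.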

[4] = log10[compound] (M) -5.69897, replicate values
[5] = log10[compound] (M) -6.19897, replicate values
[6] = log10[compound] (M) -6.69897, replicate values
[7] = log10[compound] (M) -7.19897, replicate values
[8] = log10[compound] (M) -7.69897, replicate values
[9] = log10[compound] (M) -8.19897, replicate values
[10] = log10[compound] (M) -8.69897, replicate values
[11] = log10[compound] (M) -9.19897, replicate values
[12] = log10[compound] (M) -9.69897, replicate values
[13] = log10[compound] (M) -10.199, replicate values
[14] = protein LACZ-FKBP12F36V, 500 nM, 4 h

Compound | TMT intensity per TMT channel ([2]; protein CDK12) | TMT intensity per TMT channel ([2]; protein INCENP) | TMT intensity per TMT channel ([2]; protein IRS2) | TMT intensity per TMT channel ([2]; protein SLC12A2) | TMT intensity per TMT channel ([2]; protein SLC15A4) | DMSO-normalized antiproliferation [3, 4] | DMSO-normalized antiproliferation [3, 5] | DMSO-normalized antiproliferation [3, 6] | DMSO-normalized antiproliferation [3, 7] | DMSO-normalized antiproliferation [3, 8] | DMSO-normalized antiproliferation [3, 9] | DMSO-normalized antiproliferation [3, 10] | DMSO-normalized antiproliferation [3, 11] | DMSO-normalized antiproliferation [3, 12] | DMSO-normalized antiproliferation [3, 13] | also measured
CC[C@H](C(=O)N1CCCC[C@H]1C(=O)O[C@H](CCc1ccc(OC)c(OC)c1)c1ccccc1OCC(=O)NCCCCCCOc1cccc2c1C(=O)N(C1CCC(=O)NC1=O)C2=O)c1cc(OC)c(OC)c(OC)c1 (stereo partly shown) [dTAG-13] | 2762.51 and 2603.47 | 2716.3 and 2681.24 | 372.779 and 399.852 | 1746.63 and 1711.2 | 223.037 and 230.942 | 79.0923 and 75.109 and 80.3774 and 113.638 | 118.691 and 93.7383 and 99.9076 and 98.4249 | 98.3156 and 96.4487 and 164.194 and 141.704 | 94.7264 and 123.324 and 123.729 and 139.928 | 115.53 and 113.276 and 121.811 and 92.6376 | 99.0586 and 98.4337 and 106.76 and 114.872 | 84.0085 and 109.147 and 95.5423 and 106.301 | 117.815 and 105.751 and 92.5029 and 116.86 | 127.696 and 110.786 and 93.8321 and 122.663 | 105.1 and 122.023 and 107.287 and 98.2283 | DMSO-normalized antiproliferation [1, 4]: 12.7187 and 7.467 and 16.3605 and 9.962; DMSO-normalized antiproliferation [1, 5]: 11.9335 and 12.0003 and 12.0114 and 13.9827; DMSO-normalized antiproliferation [1, 6]: 14.0106 and 15.4027 and 13.0027 and 15.9484; DMSO-normalized antiproliferation [1, 7]: 14.0384 and 16.4385 and 16.9619 and 11.7776; DMSO-normalized antiproliferation [1, 8]: 14.9517 and 15.5419 and 18.3931 and 15.5976; DMSO-normalized antiproliferation [1, 9]: 24.6577 and 23.0874 and 23.2266 and 22.4971; DMSO-normalized antiproliferation [1, 10]: 42.8837 and 45.8128 and 51.5651 and 55.5467; DMSO-normalized antiproliferation [1, 11]: 69.8747 and 70.4761 and 56.6493 and 74.3184; DMSO-normalized antiproliferation [1, 12]: 76.2117 and 76.4178 and 69.3902 and 68.6162; DMSO-normalized antiproliferation [1, 13]: 73.2492 and 74.079 and 68.7888 and 65.637
CC[C@H](C(=O)N1CCCC[C@H]1C(=O)O[C@H](CCc1ccc(OC)c(OC)c1)c1ccccc1OCC(=O)NCCCCCCC(=O)N[C@H](C(=O)N1C[C@H](O)C[C@H]1C(=O)N[C@@H](C)c1ccc(-c2scnc2C)cc1)C(C)(C)C)c1cc(OC)c(OC)c(OC)c1 [dTAG^V-1] | 2772.29 and 2668.65 and 2839.83 | 2143.95 and 2638.07 and 2856.47 | 352.3 and 336.062 and 338.748 | 1789.71 and 1681.54 and 1827.76 | 231.802 and 205.301 and 235.055 | 35.4292 and 29.4521 and 35.0517 and 31.6104 | 87.2455 and 81.8203 and 77.0995 and 64.2664 | 124.825 and 81.8259 and 133.331 and 119.877 | 118.009 and 93.8067 and 130.572 and 123.376 | 133.195 and 132.373 and 134.672 and 120.383 | 136.88 and 106.56 and 99.7166 and 163.283 | 148.548 and 115.202 and 143.359 and 119.836 | 116.491 and 96.4785 and 115.962 and 80.4138 | 139.57 and 103.845 and 96.4961 and 122.632 | 133.817 and 113.621 and 96.1958 and 88.4566 | Cell proliferation upon FKBP12F36V-KRASG12V degradation ([1]; 2D-monolayer and 3D-spheroid cultures, 120 h): diminished cell proliferation; DMSO-normalized antiproliferation ([1]; 120 h, log10[compound] (M) -5.69897, single replicates): 14.2222 and 15.5085 and 18.1313 and 19.3564; DMSO-normalized antiproliferation ([1]; 120 h, log10[compound] (M) -6.19897, single replicates): 19.4455 and 15.9874 and 15.9651 and 15.7814; DMSO-normalized antiproliferation ([1]; 120 h, log10[compound] (M) -6.69897, single replicates): 16.8171 and 16.5888 and 12.056 and 15.8705; DMSO-normalized antiproliferation ([1]; 120 h, log10[compound] (M) -7.19897, single replicates): 11.0759 and 11.8444 and 17.6524 and 14.6677; DMSO-normalized antiproliferation ([1]; 120 h, log10[compound] (M) -7.69897, single replicates): 20.7875 and 17.3072 and 22.4693 and 16.2436; Protein levels of VHL or VHL-regulated targets ([2]; 500 nM, 4 h): No significant changes; log2 (Fold change) compared to DMSO ([2]; protein BCAR3, 500 nM, 4 h): 0.1578; log2 (Fold change) compared to DMSO ([2]; protein CYBA, 500 nM, 4 h): -0.2931; Fold change < -2 [2, 14]: + (Fold change in which '+' refers to fold change < -2.); log2 (Fold change) compared to DMSO [2, 14]: -1.082; log2 (Fold change) compared to DMSO ([2]; protein RAB18, 500 nM, 4 h): -0.08378; log2 (Fold change) compared to DMSO ([2]; protein SEPTIN10, 500 nM, 4 h): 0.1418; DMSO-normalized antiproliferation ([3]; log10[compound] (M) -6.69897): 102.668 and 99.5089 and 89.7578 and 106.231; DMSO-normalized antiproliferation ([3]; log10[compound] (M) -7.19897): 90.1193 and 111.795 and 91.2446 and 98.3924; DMSO-normalized antiproliferation ([3]; log10[compound] (M) -7.69897): 112.909 and 117.897 and 108.192 and 99.266; DMSO-normalized antiproliferation ([3]; log10[compound] (M) -8.19897): 101.415 and 100.309 and 97.138 and 102.461; DMSO-normalized antiproliferation ([3]; log10[compound] (M) -8.69897): 103.413 and 90.0724 and 92.9073 and 97.9489
